{"source": "patent US20240018133A1", "about": "“MODULATORS OF THE INTEGRATED STRESS PATHWAY” (Calico Life Sciences LLC, priority 2019, published 2024)", "data": [{"tested_on": "ATF4 luciferase reporter (human full-length ATF4 5'-UTR fused to firefly luciferase) in HEK293T cells", "assay": "ATF4-Luc assay (in vitro model of VWMD): HEK293T cells carrying ATF4 luciferase reporter, tunicamycin-treated", "assay_type": "cell-based", "conditions": "Homo sapiens, HEK-293T, 1 μg/mL tunicamycin, 7 hours, One Glo luminescence", "experimental": "In order to test exemplary compounds of the invention in a cellular context, a stable VWMD cell line was first constructed. The ATF4 reporter was prepared by fusing the human full-length ATF4 5′-UTR (NCBI Accession No. BC022088.2) in front of the firefly luciferase (FLuc) coding sequence lacking the initiator methionine as described in Sidrauski et al (eLife 2013). The construct was used to produce recombinant retroviruses using standard methods and the resulting viral supernatant was used to transduce HEK293T cells, which were then subsequently selected with puromycin to generate a stable cell line.\nHEK293T cells carrying the ATF4 luciferase reporter were plated on polylysine coated 384-well plates (Greiner Bio-one) at 30,000 cells per well. Cells were treated the next day with 1 μg/mL tunicamycin and 200 nM of a compound of Formula (I) for 7 hours. Luminescence was measured using One Glo (Promega) as specified by the manufacturer. Cells were maintained in DMEM with L-glutamine supplemented with 10% heat-inactivated FBS (Gibco) and Antibiotic-Antimycotic solution (Gibco).\nTable 2 below summarizes the EC50 data obtained using the ATF4-Luc assay for exemplary compounds of the invention.", "units": {"EC50": "nM"}, "values": [{"smiles": "O=C(COc1ccc(Cl)c(F)c1)NC12CC(NC(=O)C3CC(=O)c4cc(Cl)ccc4O3)(C1)C2", "note": "(centres unmarked) [Compound 186, 6-chloro-N-{3-[2-(4-chloro-3-fluorophenoxy)acetamido]bicyclo[1.1.1]pentan-1-yl}-4-oxo-3,4-dihydro-2H-1-benzopyran-2-carboxamide]", "EC50": "< 10"}, {"smiles": "O=C(COc1ccc(Cl)c(F)c1)NC12CC(NC(=O)C3CC(NCCO)c4cc(Cl)ccc4O3)(C1)C2", "note": "(centres unmarked) [Compound 188, 6-chloro-N-{3-[2-(4-chloro-3-fluorophenoxy)acetamido]bicyclo[1.1.1]pentan-1-yl}-4-[(2-hydroxyethyl)amino]-3,4-dihydro-2H-1-benzopyran-2-carboxamide]", "EC50": "10 to 50"}, {"smiles": "COC(C)(C)CN1C[C@@H](C(=O)NC23CC(NC(=O)COc4ccc(Cl)c(F)c4)(C2)C3)Oc2ccc(Cl)cc21", "note": "[Compound 191, (2S)-6-chloro-N-{3-[2-(4-chloro-3-fluorophenoxy)acetamido]bicyclo[1.1.1]pentan-1-yl}-4-(2-methoxy-2-methylpropyl)-3,4-dihydro-2H-1,4-benzoxazine-2-carboxamide]", "EC50": "500 to 2000"}, {"smiles": "O=C(O)CNC1CC(C(=O)NC23CC(NC(=O)COc4ccc(Cl)c(F)c4)(C2)C3)Oc2ccc(Cl)cc21", "note": "(centres unmarked) [Compound 192, {[6-chloro-2-({3-[2-(4-chloro-3-fluorophenoxy)acetamido]bicyclo[1.1.1]pentan-1-yl}carbamoyl)-3,4-dihydro-2H-1-benzopyran-4-yl]amino}acetic acid]", "EC50": "500 to 2000"}, {"smiles": "O=C(COc1ccc(Cl)c(F)c1)NC12CC(NC(=O)[C@@H]3C[C@H](O)c4cc(Cl)ccc4O3)(C1)C2", "note": "[Compound 195, (2S,4S)-6-chloro-N-{3-[2-(4-chloro-3-fluorophenoxy)acetamido]bicyclo[1.1.1]pentan-1-yl}-4-hydroxy-3,4-dihydro-2H-1-benzopyran-2-carboxamide]", "EC50": "< 10"}, {"smiles": "O=C(COc1ccc(Cl)c(F)c1)NC12CC(NC(=O)[C@H]3C[C@@H](O)c4cc(Cl)ccc4O3)(C1)C2", "note": "[Compound 196, (2R,4R)-6-chloro-N-{3-[2-(4-chloro-3-fluorophenoxy)acetamido]bicyclo[1.1.1]pentan-1-yl}-4-hydroxy-3,4-dihydro-2H-1-benzopyran-2-carboxamide]", "EC50": "< 10"}, {"smiles": "O=C(COc1ccc(Cl)c(F)c1)NC12CC(NC(=O)[C@H]3C[C@H](O)c4cc(Cl)ccc4O3)(C1)C2", "note": "[Compound 197, (2R,4S)-6-chloro-N-{3-[2-(4-chloro-3-fluorophenoxy)acetamido]bicyclo[1.1.1]pentan-1-yl}-4-hydroxy-3,4-dihydro-2H-1-benzopyran-2-carboxamide]", "EC50": "< 10"}, {"smiles": "O=C(COc1ccc(Cl)c(F)c1)NC12CC(NC(=O)[C@@H]3C[C@@H](O)c4cc(Cl)ccc4O3)(C1)C2", "note": "[Compound 198, (2S,4R)-6-chloro-N-{3-[2-(4-chloro-3-fluorophenoxy)acetamido]bicyclo[1.1.1]pentan-1-yl}-4-hydroxy-3,4-dihydro-2H-1-benzopyran-2-carboxamide]", "EC50": "< 10"}, {"smiles": "O=C(COc1ccc(Cl)c(F)c1)NC12CCC(NC(=O)C3CC(=O)c4cc(Cl)ccc4O3)(CC1)C[C@@H]2O", "note": "(stereo partly drawn) [Compound 199C, 6-chloro-N-{(3S)-4-[2-(4-chloro-3-fluorophenoxy)acetamido]-3-hydroxybicyclo[2.2.2]octan-1-yl}-4-oxo-3,4-dihydro-2H-1-benzopyran-2-carboxamide]", "EC50": "< 10"}, {"smiles": "O=C(COc1ccc(Cl)c(Cl)c1)NC12CC(NC(=O)[C@H]3C[C@@H](O)c4cc(F)c(F)cc4O3)(C1)C2", "note": "[Compound 207, (2R,4R)—N-{3-[2-(3,4-dichlorophenoxy)acetamido]bicyclo[1.1.1]pentan-1-yl}-6,7-difluoro-4-hydroxy-3,4-dihydro-2H-1-benzopyran-2-carboxamide]", "EC50": "< 10"}, {"smiles": "O=C(COc1ccc(Cl)c(Cl)c1)NC12CC(NC(=O)[C@H]3CC(=O)c4cc(F)c(F)cc4O3)(C1)C2", "note": "[Compound 207E, (2R)—N-{3-[2-(3,4-dichlorophenoxy)acetamido]bicyclo[1.1.1]pentan-1-yl}-6,7-difluoro-4-oxo-3,4-dihydro-2H-1-benzopyran-2-carboxamide]", "EC50": "< 10"}]}]}
